In US12421522B2, “Modulation of transgene expression in plants” (CORTEVA AGRISCIENCE LLC, priority 2016, dated 2025):

Tests used:
[1] = tested on: soybean tissues; assay: miRNA expression profiling of miR1512 and miR3522 in soybean tissues; settings: for relative expression level, 5 mm seed: soybean 5 mm seed; for relative expression level, Hypocotyl: soybean hypocotyl; for relative expression level, Leaf: soybean leaf; for relative expression level, Pod: soybean pod; for relative expression level, Root: soybean root
[2] = tested on: soybean tissues; assay: as above; settings: for relative expression level, 3 mm seed: soybean 3 mm seed; for relative expression level, Cotyledons: soybean cotyledons; for relative expression level, Embryo axis: soybean embryo axis; for relative expression level, Flower: soybean flower; for relative expression level, Pods from 5 mm seeds: soybean pods from 5 mm seeds; for relative expression level, Root tip: soybean root tip; for relative expression level, Seed coat: soybean seed coat; for relative expression level, Stem: soybean stem
Protocol: Small RNA Library Construction and Sequencing: Small RNA library construction was carried out using Illumina's TruSeq Small RNA sample preparation kit according to the manufacturer's recommendations. Briefly, RNA 3′ and RNA 5′ adapters were sequentially ligated onto 1 μg of high-quality purified Small RNA sample using truncated T4 RNA Ligase 2 and T4 RNA Ligase respectively. The small RNA fragments were then copied into first strand cDNA using SuperScript II reverse transcriptase. The cDNA was converted into double stranded cDNA (ds cDNA) with PCR using two primers that respectively anneal to the ends of 3′ and 5′ adapters. This process selectively enriches those fragments that have adapter molecules on both ends. The amplified cDNA construct is then purified on a 6% PAGE gel, normalized to 2 nM concentration, denatured with sodium hydroxide, and diluted in hybridization buffer for loading onto a Hiseq flow cell. Cluster generation, primer hybridization and sequencing reactions were carried out according to Illumina's recommended protocol.
Given the variation in expression among different soybean tissues, miR1512 and miR3522 recognition sites were selected to exemplify tissue-specific transgene expression modulation in a dicot plant.
Table 1. miRNA microarray expression profiling of miR1512 and miR3522 in soybean tissues. Numbers represent relative expression levels.

Substance | miRNA expression (in words) ([1]; leaves and other vegetative tissue) | miRNA expression (in words) ([1]; root) | miRNA expression (in words) ([1]; seed and seed coat) | relative expression level, 5 mm seed [1] | relative expression level, Hypocotyl [1] | relative expression level, Leaf [1] | relative expression level, Pod [1] | relative expression level, Root [1] | relative expression level, 3 mm seed [2] | relative expression level, Cotyledons [2] | relative expression level, Embryo axis [2] | relative expression level, Flower [2] | relative expression level, Pods from 5 mm seeds [2] | relative expression level, Root tip [2] | relative expression level, Seed coat [2] | relative expression level, Stem [2] | miRNA expression (in words) ([1]; all tissues examined except the root tissue)
miR1512: endogenous soybean micro-RNA, exemplary miR1512 RNA UAACUGAACAUUCUUAGAGCAU (expressed or natural sequence) | very low expression | medium expression | high levels | 183 | 0 | 0 | 1854 | 0 | 10427 | 70 | 20 | 79 | 23938 | 3118 | 13532 | 15 | –
miR3522: endogenous soybean micro-RNA, exemplary miR3522 RNA UGAGACCAAAUGAGCAGCUGA (expressed or natural sequence) | – | – | – | 30139 | 1310 | 15350 | 405 | 399 | 8958 | 26265 | 3200 | 18509 | 1351 | 649 | 2551 | 3180 | high or medium levels
